The text below walks through data of patent US11896593B2, “Sulfamate derivative compounds for use in treating or alleviating a psychiatric disorder” (Bio-Pharm Solutions Co., Ltd., priority 2020, dated 2024).

The structures appear in SMILES notation.

The test system of the assay is ICR male mice. The assay can be described thus: Forced swim test (mouse, mFST). Type of assay: in vivo. Conditions: po, mouse forced swim test, 1 hr, read-out: mFST protection % at administration dose. As to the method:
In order to determine the anti-depressant effect in rodents, the forced swim test was performed with rats and mice. The forced swim test causes an immobile state by forcing an animal to swim in a confined space. It reflects a state of despair giving up evading such a circumstance. ICR male mice (25 g to 30 g) and Wistar male rats (240 g to 260 g) were purchased from Samtako Bio Korea Co. (Korea) and allowed to acclimatize for 1 week before being tested in a controlled animal facility (temperature 22±2° C., humidity 55±5%). The test compound was dissolved in 20% Tween80 and administered orally 60 minutes before testing. The control group was provided with a corresponding vehicle. […] 15 minutes of forced swimming was performed a day before the experiment. On the day of the experiment, the animal was placed in the cylinder 60 minutes after the administration of the compound and was videotaped for 6 minutes. In the recorded videos, time during which the animal placed its head on the water and remained still without movement was measured based on the remaining 4 minutes excluding the first 2 minutes. It was evaluated that the lower the value of the immobile posture time, the greater the anti-depressant action (Reference; Porsolt R D, Le Pichon M. Jalfre M. 1997. Depression: a new animal model sensitive to antidepressant treatments. Nature. April 21; 266(5604):730-2.).
The result was shown as the standard error of measurement (SEM) of mean value t mean value. Behavioral data were analyzed by one-way ANOVA. For statistical significance, a value of <0.05 was taken (***p<0.001, **p=0.001˜0.01, *p=0.01˜0.05). Data management and statistics were performed using the Prism software of Windows version 4 (GraphPad Softward Co., San Diego, CA, USA).
Based on the results of Table 7, the ED50 value of the compound of Example 2 was calculated and shown in Table 7, and after 30 mg/kg and 60 mg/kg of the compounds of the other remaining examples were administered based on TD50 values to perform the forced swim tests, respectively, the administration doses with protected efficacy and protection % at the corresponding administration doses were shown in Table 7.

Turning to `NS(=O)(=O)OC[C@@H]1OC2(CCCC2)O[C@H]1c1ccccc1Cl` [Example 10, ((2S,3S)-3-(2-chlorophenyl)-1,4-dioxaspiro[4,4]nonan-2-yl)methyl sulfamate], the inhibition in vivo at 60 mg/kg amounted to 19%.
As for `CC1(C)O[C@@H](COS(N)(=O)=O)[C@H](c2ccc(Cl)cc2Cl)O1` [Example 40, ((4S,5S)-5-(2,4-dichlorophenyl)-2,2-dimethyl-1,3-dioxolan-4-yl)methyl sulfamate], the inhibition in vivo at 30 mg/kg was 64.2%.
Turning to `NS(=O)(=O)OC[C@H]1OC2(CCCC2)O[C@@H]1c1c(Cl)cccc1Cl` [Example 57, ((2R,3R)-3-(2,6-dichlorophenyl)-1,4-dioxaspiro[4,4]nonan-2-yl)methyl sulfamate], the inhibition in vivo at 30 mg/kg stood at 61.6%.
As for `Nc1ccccc1[C@@H]1OC2(CCCC2)O[C@H]1COS(N)(=O)=O` [Example 72, ((2S,3S)-3-(2-aminophenyl)-1,4-dioxaspiro[4,4]nonan-2-yl)methyl sulfamate], the inhibition in vivo at 60 mg/kg came out at 54.3%.
For the molecule `NS(=O)(=O)OC[C@@H]1OC(=O)O[C@H]1c1ccccc1[N+](=O)[O-]` [Example 90, ((4S,5S)-5-(2-nitrophenyl)-2-oxo-1,3-dioxolan-4-yl)methyl sulfamate], the inhibition in vivo at 60 mg/kg was found to be 60.4%.
On to `Cc1ccccc1[C@@H]1OC(C)(C)O[C@H]1COS(N)(=O)=O` [Example 92, ((4S,5S)-5-(2-methylphenyl)-2,2-dimethyl-1,3-dioxolan-4-yl)methyl sulfamate], for which the inhibition in vivo at 30 mg/kg worked out at 47%.
As for `CC1(C)O[C@@H](COS(N)(=O)=O)[C@H](c2ccccc2)O1` [Example 106, ((4S,5S)-5-phenyl-2,2-dimethyl-1,3-dioxolan-4-yl)methyl sulfamate], the inhibition in vivo at 60 mg/kg came to 24.5%.
On to `NS(=O)(=O)OC[C@@H]1OC2(CCCC2)O[C@H]1c1ccccc1` [Example 110, ((2S,3S)-3-phenyl-1,4-dioxaspiro[4,4]nonan-2-yl)methyl sulfamate], for which the inhibition in vivo at 60 mg/kg was 39.3%.
Still for that read-out and setting: the result for `CC1(C)O[C@@H](CCOS(N)(=O)=O)[C@H](Cc2ccccc2)O1` [Example 114, 2-((4S,5S)-5-benzyl-2,2-dimethyl-1,3-dioxolan-4-yl)ethyl sulfamate] reads 36.4%; that for `NS(=O)(=O)OCC[C@@H]1OC2(CCCC2)O[C@H]1Cc1ccccc1` [Example 118, 2-((2S,3S)-3-benzyl-1,4-dioxaspiro[4,4]nonan-2-yl)ethyl sulfamate], 35.3%.
Regarding `CC1(C)O[C@@H](COS(N)(=O)=O)[C@H](Cc2ccccc2)O1` [Example 122, ((4S,5S)-5-benzyl-2,2-dimethyl-1,3-dioxolan-4-yl)methyl sulfamate], the inhibition in vivo at 30 mg/kg was determined as 46.9%.
Regarding `NS(=O)(=O)OC[C@@H]1OC2(CCCC2)O[C@H]1Cc1ccccc1` [Example 126, ((2S,3S)-3-benzyl-1,4-dioxaspiro[4,4]nonan-2-yl)methyl sulfamate], the inhibition in vivo at 60 mg/kg stood at 43%.
For the molecule `CC1(C)O[C@@H](CCOS(N)(=O)=O)[C@H](c2ccccc2)O1` [Example 130, 2-((4S,5S)-5-phenyl-2,2-dimethyl-1,3-dioxolan-4-yl)ethyl sulfamate], the inhibition in vivo at 30 mg/kg turned out to be 57.5%.
The same measure, in the same setting: with `NS(=O)(=O)OCC[C@@H]1OC2(CCCC2)O[C@H]1c1ccccc1` [Example 134, 2-((2S,3S)-3-phenyl-1,4-dioxaspiro[4,4]nonan-2-yl)ethyl sulfamate] the figure was 63%.
With `CC1(C)O[C@@H](CCOS(N)(=O)=O)[C@H](Cc2ccccc2Cl)O1` [Example 138, 2-((4S,5S)-5-(2-chlorobenzyll)-2,2-dimethyl-1,3-dioxolan-4-yl)ethyl sulfamate], the inhibition in vivo at 60 mg/kg is 60.2%.
On the same count and under the same terms, with `NS(=O)(=O)OCC[C@@H]1OC2(CCCC2)O[C@H]1Cc1ccccc1Cl` [Example 142, 2-((2S,3S)-3-(2-chlorobenzyl)-1,4-dioxaspiro[4,4]nonan-2-yl)ethyl sulfamate] the figure was 45.9%; with `CC1(C)O[C@@H](COS(N)(=O)=O)[C@H](Cc2ccccc2Cl)O1` [Example 146, ((4S,5S)-5-(2-chlorobenzyl)-2,2-dimethyl-1,3-dioxolan-4-yl)methyl sulfamate], 65.1%; with `NS(=O)(=O)OC[C@@H]1OC2(CCCC2)O[C@H]1Cc1ccccc1Cl` [Example 150, ((2S,3S)-3-(2-chlorobenzyl)-1,4-dioxaspiro[4,4]nonan-2-yl)methyl sulfamate], 56.9%.
Consider `CC1(C)O[C@@H](CCOS(N)(=O)=O)[C@H](c2ccccc2Cl)O1` [Example 154, 2-((4S,5S)-5-(2-chlorophenyl)-2,2-dimethyl-1,3-dioxolan-4-yl)ethyl sulfamate], for which the inhibition in vivo at 60 mg/kg came to 38.9%.
Regarding `NS(=O)(=O)OCC[C@@H]1OC2(CCCC2)O[C@H]1c1ccccc1Cl` [Example 158, 2-((2S,3S)-3-(2-chlorophenyl)-1,4-dioxaspiro[4,4]nonan-2-yl)ethyl sulfamate], the inhibition in vivo at 30 mg/kg came out at 51.6%.
Consider `CC1(C)O[C@@H](COS(N)(=O)=O)[C@H](c2sc(Cl)nc2Cl)O1` [Example 164, ((4S,5R)-5-(2,4-dichlorothiazol-5-yl)-2,2-dimethyl-1,3-dioxolan-4-yl)methyl sulfamate], for which the inhibition in vivo at 60 mg/kg amounted to 44.9%.
The same measure, in the same setting: the result for `CC1(C)O[C@@H](COS(N)(=O)=O)[C@H](c2cnc(Cl)s2)O1` [Example 166, ((4R,5S)-5-(2-chlorothiazol-5-yl)-2,2-dimethyl-1,3-dioxolan-4-yl)methyl-sulfamate] reads 53.3%.
